Experimental data published in article PMC10778626, “Efficacy of Novel Quaternary Ammonium and Phosphonium Salts Differing in Cation Type and Alkyl Chain Length against Antibiotic-Resistant Staphylococcus aureus” (International Journal of Molecular Sciences, 2023).
≈ marks a conversion by molar mass, not a printed value.

Columns and labels:
HepG2 cells = assay: Cytotoxicity by neutral red (NR) uptake; type: cell-based, human; details: HepG2, 24 h
Description: The evaluation of the cytotoxicity effects of QHSs was performed using hepatocellular carcinoma (HepG2) cells. […] The cells used for all experiments were taken between the 9th and 13th passages, to avoid phenotypic changes.
The cytotoxicity profile of the compounds under study was evaluated in HepG2 cells (2.5 × 10^5 cells/mL) seeded in 96-well plates. […] Control experiments were performed for viability endpoints by adding the vehicle (medium with 0.1% DMSO) instead of the compound solution.
In the NR uptake assay, following a 24 h incubation period with the test compounds, the cell culture medium was aspirated, and fresh medium containing 150 µL of the dye (at a concentration of […]) was added to the cells. […] After incubation, the cell culture medium was discarded, and a mixture of absolute ethanol and distilled water (1:1) containing 5% acetic acid was added to extract the dye accumulated within the lysosomes of viable cells. The absorbance at 540 nm was measured using a microplate reader (Synergy HTX Multi-Mode Reader—BioTek, Winooski, VT, USA).
For all assays, results are expressed as a percentage of the control (nontreated cells), taken as 100%.

S. aureus CECT 976 = system: S. aureus CECT 976; set-up: method as in Abreu et al. [44]; details: antibiotics, broth microdilution, ref Abreu et al. [44]; cited from earlier work
S. aureus SA1199B = details: antibiotics, ref Abreu et al. [44]; cited from earlier work

O=C(O)c1cn(C2CC2)c2cc(N3CCNCC3)c(F)cc2c1=O [[CIP], ciprofloxacin, reference compound]
NR uptake (lysosomal activity), % of control (HepG2 cells; 2 µg/mL): 106.7 ± 11.16% (ns) | NR uptake (lysosomal activity), % of control (HepG2 cells; 16 µg/mL): 96.82 ± 5.237% (ns) | NR uptake (lysosomal activity), % of control (HepG2 cells; 32 µg/mL): 92.35 ± 6.807% (ns) | MIC (S. aureus CECT 976): 1 µg/mL (≈ 3.02 µM) | MIC (S. aureus SA1199B): 128 µg/mL (≈ 386 µM)

CN(C)[C@@H]1C(O)=C(C(N)=O)C(=O)[C@@]2(O)C(O)=C3C(=O)c4c(O)cccc4[C@@](C)(O)[C@H]3C[C@@H]12 [[TET], tetracycline]
MIC (S. aureus CECT 976): 0.96 µg/mL (≈ 2.16 µM)

CC[C@H]1OC(=O)[C@H](C)[C@@H](O[C@H]2C[C@@](C)(OC)[C@@H](O)[C@H](C)O2)[C@H](C)[C@@H](O[C@@H]2O[C@H](C)C[C@H](N(C)C)[C@H]2O)[C@](C)(O)C[C@@H](C)C(=O)[C@H](C)[C@@H](O)[C@]1(C)O [[ERY], erythromycin, reference compound]
NR uptake (lysosomal activity), % of control (HepG2 cells; 2 µg/mL): 108.4 ± 4.998% (ns) | NR uptake (lysosomal activity), % of control (HepG2 cells; 16 µg/mL): 107.1 ± 7.642% (ns) | NR uptake (lysosomal activity), % of control (HepG2 cells; 32 µg/mL): 110.2 ± 9.546% (ns) | MIC (S. aureus CECT 976): 0.24 µg/mL (≈ 0.327 µM)
